# Assays:
# [1] = test system: CHIP (siTET2) myeloid cells; assay: Synthetic lethality screen of a CVD drug library, alamarBlue Cell Viability assay, CHIP cells; format: cell-based; conditions: THP-1 cells with TET2 siRNA knockdown; drugs 100 µM, 48 hours; compared with Vehicle
# Method: (§1) The established disease model can subsequently be used for drug screening. Thus, a synthetic lethality screening of a CVD (cardiovascular disease) drug library was performed, treating CHIP (siTET2) or healthy (siScr) myeloid cells.
# (§2) THP-1 cells were purchased from DSMZ (ACC 16) and maintained in RPMI-1640 (Gibco) +10% Fetal Calf Serum, 1% Penicillin/Streptomycin, 1% Glutamine, 0.05 mM 2-Mercaptoethanol.
# (§3) THP-1 cells were differentiated from monocytes to macrophages by supplementing the media 100 ng/mL PMA and culturing for 48 h, and then in PMA-free media for another 24 h. For routine culturing, cells were maintained at 37°C, 5% CO2, 20% O2. In cardiopathologic culturing, both THP1 cells and organoids were maintained hypoxic conditions at 37°C, 5% CO2, 1% O2.
# (§4) Transfection of THP-1 cells with siRNA purchased as ON-TARGETplus pools from Horizon Discovery (TET2 siRNA pool containing: ACAAGAAAGUAGAGGGUAU (SEQ ID NO 001), ACACCUAGUUUCAGAGAAU (SEQ ID NO 002), CCUCAGAAUAAUUGUGUGA (SEQ ID NO 003), CAGCAAAGGUACUUGAUAC (SEQ ID NO 004); Control siRNA pool containing: UGGUUUACAUGUUGUGUGA (SEQ ID NO 005), UGGUUUACAUGUUUUCCUA (SEQ ID NO 006)).
# (§5) Working solution of 50µM siRNA was prepared in siRNA Buffer (ThermoFisher). 2 µL of 50µM siRNA were mixed with 500 µL OptiMEM and 6.25µL LTX Reagent PLUS (ThermoFisher) and incubated at room temperature (RT) for 15 min. 6.25 µL Lipofectamine LTX was added, mixed, and incubated for 30 min at RT. 500 µL were then added to the target culture and the culture was incubated at 37°C, 5% CO2. Passaging and/or media change was performed after 24 h.
# (§6) THP-1 monocytes and macrophages were cocultured overnight (18 h) with siRNA. They were then washed with PBS and used for either TET2 knockdown quality control (as described below) or for the drug screening. For the screening, cells were transferred from tissue culture flasks to 384-well plates. Drugs were added to a final concentration of 100 µM and incubated for 48 hours. An alamarBlue Cell Viability assay (Invitrogen) with a 4 h incubation was performed according to the manufacturer's instructions.
# [2] = test system: healthy (siScr) myeloid cells; assay: Synthetic lethality screen of a CVD drug library, alamarBlue Cell Viability assay, healthy cells; format: cell-based; conditions: THP-1 cells with control siRNA; drugs 100 µM, 48 hours; compared with Vehicle
# Method: as §1, §2, §3, §4, §5, §6
# [3] = test system: CHIP (siTET2) myeloid cells; assay: Trypan Blue Assay (cell death), CHIP cells; format: cell-based
# [4] = test system: healthy (siScr) myeloid cells; assay: Trypan Blue Assay (cell death), healthy cells; format: cell-based
# [5] = test system: CHIP (siTET2) myeloid cells; assay: Cl. Caspase Assay (apoptosis), CHIP cells; format: cell-based
# [6] = test system: healthy (siScr) myeloid cells; assay: Cl. Caspase Assay (apoptosis), healthy cells; format: cell-based
# [7] = test system: CHIP-infiltrated cardiac organoids (siTET2); assay: cTNT assay (Human Cardiac Troponin T ELISA) in organoid coculture; format: cell-based; conditions: siTET2 organoids treated vs Vehicle; healthy = siScr; 3 days of culturing
# Method: The cTNT assay was performed using the Human Cardiac Troponin T ELISA® Kit (ab223860, Abcam) following the manufacturer's instructions.
# [8] = test system: CHIP-infiltrated cardiac organoids (siTET2); assay: Cardiomyocyte apoptosis in cardiac organoids (Cleaved Caspase staining colocalized with α-Actinin); format: cell-based, human; conditions: siTET2 organoids treated vs Vehicle; healthy = siScr
# Text: To assess the CM death, the inventors used cleaved caspase staining which labels apoptotic cells. […] The increase in CM death in the TET2 KD group is further verified by an increase in cardiac troponin T (cTNT), a prognostic cardiac damage clinical biomarker (* p <0.05).
# [9] = test system: cardiac organoids infiltrated with CHIP myeloid cells; assay: Gene expression (RNA levels of markers) in cardiac organoids infiltrated with CHIP myeloid cells; format: cell-based, human; conditions: treated vs Vehicle; normalized to healthy state = 1.0
# Method: (§7) Macrophages were differentiated from THP1 monocytes, then treated with siRNAs (18 h incubation), washed, and labeled with Qtracker™ 655 Cell Labeling Kit (ThermoFisher) for 1 h according to the manufacturer's instructions, washed with PBS, and dissociated with 0.05% trypsin. Macrophages were then added to organoids and cultured at 37°C, 5% CO2, and 1%O2. Cultures were maintained in 96-well U-bottom plates.
# (§8) Immunostaining, RNA extraction and cTNT assays were run after 3 days of culturing.
# [10] = test system: CHIP-infiltrated cardiac organoids (siTET2); assay: Myeloid cell infiltration into cardiac organoids (Qtracker staining, coculture); conditions: siTET2 organoids treated vs Vehicle; baseline siScr Vehicle; hypoxic coculture, 3 days
# Method: These MCs were utilized in the coculturing system with self-organized human cardiac organoids, where they were tracked using a Qtracker stain.
# as §7, §8
# After an overnight PFA fixation, the organoids were washed with PBS, then treated with 1% TritonX-100 (in PBS) for 45 minutes. Afterwards, they are incubated with PBS for 10 minutes for washing. 5% horse serum (in PBS) is added to block and incubated for 45 minutes (RT) Primary antibody in 2% horse serum + 0.0002% TritonX-100 was added and the samples were incubated at 4°C overnight. Primary antibodies: Anti-Sarcomeric-actinin (Ab68167, anti-human), Anti-Cleaved Caspase-3 (Ab32042, anti-human). Samples were washed with PBS + 0.002% TritonX-100 6x10min. Secondary antibodies and additional stains were added and incubated for 4h at RT: AlexaFlour 488 (Invitrogen, A11070), AlexaFlour 555 (Invitrogen, A21425), DAPI, Qtracker labelling 655 (Invitrogen, Q25021 MP). Samples were washed by incubating with PBS+0.002%TritonX-100 for 2-3 hours at RT), and mounted on Superfrost Plus Adhesion Slides (ThermoFisher) sing transparent polish to seal the slide sides to the coverslips (Roth). Samples were imaged using SP8 Lightning Leica Confocal Microscope, using a 40x objective (for a total of 800x and 300x magnification with zoom factors and eye lenses).
Molecule,viability of CHIP myeloid cells (siTET2) [1],viability of healthy (siScr) cells [2],levels of cell death of CHIP myeloid cells (Trypan Blue Assay) [3],cell death of healthy (siScr) cells (Trypan Blue Assay) [4],apoptosis of CHIP myeloid cells (CI. Caspase Assay) [5],apoptosis of healthy (siScr) cells (CI. Caspase Assay) [6],levels of the prognostic marker cTNT [7],cardiomyocyte apoptosis levels (areas of Cleaved Caspase staining) [8],"RNA levels of myeloid, inflammatory, heart failure and fibrotic markers [9]",infiltration of myeloid cells into organoids (Qtracker-stained area) [10]
"CC(=O)O[C@H]1C[C@H](O[C@H]2[C@@H](O)C[C@H](O[C@H]3[C@@H](O)C[C@H](O[C@H]4CC[C@@]5(C)[C@H](CC[C@@H]6[C@@H]5C[C@@H](O)[C@]5(C)[C@@H](C7=CC(=O)OC7)CC[C@]65O)C4)O[C@@H]3C)O[C@@H]2C)O[C@H](C)[C@H]1O[C@@H]1O[C@H](CO)[C@@H](O)[C@H](O)[C@H]1O [Lanatoside C, lanatoside C]",selectively inhibit the viability of CHIP myeloid cells (siTET2),without compromising the viability of healthy (siScr) cells,increase the levels of cell death of CHIP myeloid cells,without inflicting harm on the healthy (siScr) cells,increase the levels of cell death of CHIP myeloid cells (Trypan Blue Assay) and apoptosis in particular,without inflicting harm on the healthy (siScr) cells,decreased back to healthy levels,decreased areas of Cleaved Caspase staining back towards healthy levels,rescued upon treatment with the 3 aforementioned drugs back down towards healthy levels (≤1.0),decreased levels of Qtracker-stained area upon treatment of siTET2 cells back to the baseline healthy levels
CC(=O)Oc1cc(C(F)(F)F)ccc1C(=O)O [Triflusal],,also decrease the viability of healthy cells,,,,,,,,
C[C@H]1O[C@@H](O[C@H]2[C@@H](O)C[C@H](O[C@H]3[C@@H](O)C[C@H](O[C@H]4CC[C@@]5(C)[C@H](CC[C@@H]6[C@@H]5CC[C@]5(C)[C@@H](C7=CC(=O)OC7)CC[C@]65O)C4)O[C@@H]3C)O[C@@H]2C)C[C@H](O)[C@@H]1O [Digitoxin],only Ginsenoside Rb1 was found to do so significantly,,,,,,,,,
CCCCC[C@H](O)CC[C@@H]1[C@H]2Cc3cccc(OCC(=O)O)c3C[C@H]2C[C@H]1O [Treprostinil Sodium],,also decrease the viability of healthy cells,,,,,,,,
Escin,only Ginsenoside Rb1 was found to do so significantly,,,,,,,,,
CC(C)=CCC[C@](C)(O[C@@H]1O[C@H](CO[C@@H]2O[C@H](CO)[C@@H](O)[C@H](O)[C@H]2O)[C@@H](O)[C@H](O)[C@H]1O)[C@H]1CC[C@]2(C)[C@@H]1[C@H](O)C[C@@H]1[C@@]3(C)CC[C@H](O[C@@H]4O[C@H](CO)[C@@H](O)[C@H](O)[C@H]4O[C@@H]4O[C@H](CO)[C@@H](O)[C@H](O)[C@H]4O)C(C)(C)[C@@H]3CC[C@]12C [Ginsenoside Rb1],found to do so significantly,also decreases the viability of healthy cells,,,,,,,,
"COC(=O)[C@H](c1ccccc1Cl)N1CCc2sccc2C1 [Clopidogrel, clopidogrel]",selectively inhibit the viability of CHIP myeloid cells (siTET2),without compromising the viability of healthy (siScr) cells,increase the levels of cell death of CHIP myeloid cells,without inflicting harm on the healthy (siScr) cells,increase the levels of cell death of CHIP myeloid cells (Trypan Blue Assay) and apoptosis in particular,without inflicting harm on the healthy (siScr) cells,decreased back to healthy levels,decreased areas of Cleaved Caspase staining back towards healthy levels,rescued upon treatment with the 3 aforementioned drugs back down towards healthy levels (≤1.0),decreased levels of Qtracker-stained area upon treatment of siTET2 cells back to the baseline healthy levels
COc1cc(Nc2ncc(F)c(Nc3ccc4c(n3)NC(=O)C(C)(C)O4)n2)cc(OC)c1OC [R406],selectively inhibit the viability of CHIP myeloid cells (siTET2),without compromising the viability of healthy (siScr) cells,increase the levels of cell death of CHIP myeloid cells,without inflicting harm on the healthy (siScr) cells,increase the levels of cell death of CHIP myeloid cells (Trypan Blue Assay) and apoptosis in particular,without inflicting harm on the healthy (siScr) cells,decreased back to healthy levels,decreased areas of Cleaved Caspase staining back towards healthy levels,rescued upon treatment with the 3 aforementioned drugs back down towards healthy levels (≤1.0),decreased levels of Qtracker-stained area upon treatment of siTET2 cells back to the baseline healthy levels
CCCSc1nc(N[C@@H]2C[C@H]2c2ccc(F)c(F)c2)c2nnn([C@@H]3C[C@H](OCCO)[C@@H](O)[C@H]3O)c2n1 [Ticagrelor],,also decrease the viability of healthy cells,,,,,,,,

# Source: patent publication EP4215195A1, “LANATOSIDE C, CLOPIDOGREL, AND R406 IN TREATMENT OF CVD-CLONAL HEMATOPOIESIS OF INDETERMINATE POTENTIAL (CVD-CHIP)” (Genome Biologics UG, priority 2022, dated 2023)
